The text below walks through data of patent US12655090B2, “Cyclopropylamide compounds against parasites in fish” (Intervet Inc., priority 2021, dated 2026).

One may read the inhibition as how much of the control response was suppressed. Broadly, the pEC50 is the EC50 on a negative log10 scale, so that one unit is a factor of ten.

Test [1] concerns Copepodids (juvenile sea lice stage of Lepeophtheirus salmonis). The test can be described thus: Juvenile sea lice contact assay. Conditions: approximately 24 hours continuous exposure in seawater, read-out: Sea lice inhibition (% of dead+damaged copepodids); for inhibition at 0.001 µM: test concentration 1 nM. Here is the method:
Copepodids (juvenile sea lice stage of Lepeophtheirus salmonis) were exposed to seawater spiked with declining concentrations of a test compound (dissolved in a DMSO sea-water mixture). Sea lice inhibition (% of dead+damaged copepodids) was assessed after approximately 24 hours of continuous exposure. The vitality of used parasites was confirmed in a negative (solvent) control group.

For test [2], the system named is Mobile stages of sea lice (pre-adults, adults of Lepeophtheirus salmonis). As to the kind of experiment: Adult sea lice contact assay. As to conditions: assessed after approximately 1 and 24 hours of continuous exposure, read-out: EC50 (sea lice inhibition, dead+damaged sea lice). Here is the method:
Mobile stages of sea lice (i.e., pre-adults, adults of Lepeophtheirus salmonis) were exposed to seawater spiked with declining concentrations of a test compound (dissolved in a PEG sea-water mixture). Sea lice inhibition (% of dead+damaged sea lice) was assessed after approximately 1 and 24 hours of continuous exposure in comparison to a negative (solvent) control group.

The test system of test [3] is Lepeophtheirus salmonis sea lice on salmon (Salmo salar). As to the kind of experiment: Salmon in vivo efficacy trial using gavage administration. As to conditions: po. Here is the method: Salmon (Salmo salar) were treated once orally by gavage at a dose of 5 mg/kg bodyweight per fish (Day 0). As formulation DMSO 5%/fish oil 95% was used. Salmon of the negative control group received only the excipients of the formulation. The fish were infested with Lepeophtheirus salmonis copepodids twice before treatment (i.e., around day −28 and day −3) and once after treatment (i.e., day 17). […] Around day 28 (end of animal phase), fish were euthanized, and lice on each fish were classified ((pre-)adult or juvenile stage) and counted. […] Efficacy is expressed as a % reduction of sea lice in treated groups versus a control group, using the Abbott's formula.

For test [4] the test system is unchanged. As to the kind of experiment: Salmon in vivo efficacy trial using in-feed administration. Conditions: 1 mg/kg fish biomass via coated feed for 7 consecutive days; for therapeutic efficacy against juvenile sea lice: day -3 infestation, counted around day 25; for therapeutic efficacy against (pre-)adult sea lice: day -28 infestation, counted around day 8. On the procedure:
Commercial fish feed pellets were coated with formulated test compound. As formulation DMSO 5%/fish oil 95% was used. Salmon (Salmo salar) were treated orally with 1 mg/kg fish biomass via coated feed for 7 consecutive days. Salmon of the negative control groups received only feed coated with the excipients of the formulation. Fish of the therapeutic groups were infested with Lepeophtheirus salmonis copepodids twice before treatment (around day −28 and day −3).

The subject of test [5] is fully susceptible Lepeophtheirus salmonis isolate, mobile sea lice stages. As to the kind of experiment: Sea lice resistance assay, sensitive isolate. On the procedure: (§1) A sea lice resistance assay was carried out using mobile sea lice stages (i.e., pre-adults, adults) of several Lepeophtheirus salmonis-isolates with known resistance profiles (i.e., fully susceptible or multiresistant (resistant to azametiphos (OP), emamectin benzoate (ML), deltamethrin (SP)). Sea lice were exposed to seawater spiked with declining concentrations of a test compound (dissolved in a PEG300/sea-water mixture). Sea lice inhibition (% of dead+damaged sea lice) was assessed after approximately 24 and 48 hours of continuous exposure in comparison to a negative (solvent) control group.

Test [6] concerns multiresistant Lepeophtheirus salmonis isolate (resistant to azametiphos, emamectin benzoate, deltamethrin), mobile sea lice stages. The test can be described thus: Sea lice resistance assay, multi-resistant isolate. Here is the method:
as §1

The mark [7] stands for this setting: 168 h, read-out: therapeutic efficacy against (pre-)adult sea lice (% reduction vs control, Abbott's formula), once orally by gavage 5 mg/kg bodyweight, day -28 infestation, counted at day 7.
Where [8] appears, read: 672 h, read-out: prophylactic efficacy at re-infestation on Day 17 (% reduction vs control, Abbott's formula), once orally by gavage 5 mg/kg bodyweight, re-infestation day 17, counted around day 28.
Setting [9] is: 672 h, read-out: therapeutic efficacy against juvenile sea lice (% reduction vs control, Abbott's formula), once orally by gavage 5 mg/kg bodyweight, day -3 infestation, counted around day 28.

pEC50: −log10 of the molar value. Where two headings read alike, the source gives them in different places.

Take `N#CC1(NC(=O)c2cc(NC(=O)[C@H]3[C@H](c4cc(Cl)c(Cl)c(Cl)c4)C3(Cl)Cl)ccc2Cl)CC1` [Compound 1541]: the inhibition at 0.01 µM in test [1] (test concentration 10 nM) came to 100%. In addition, the pEC50 in test [2] was 8.00 to 9.00. Further, in test [3] (setting [7]), the inhibition in vivo at 5 mg/kg turned out to be 80%. For the same compound, the inhibition in vivo at 5 mg/kg in test [3] (setting [8]) was found to be 100%. Moreover, the inhibition in vivo at 5 mg/kg in test [3] (setting [9]) is 100%. In test [4], the “therapeutic efficacy against juvenile sea lice” value was found to be 100%, the “therapeutic efficacy against (pre-)adult sea lice” value is given as 100%, the “prophylactic efficacy against re-infestation after treatment (D14)” value (“prophylactic efficacy … (D14)” below) is 100% and the “prophylactic efficacy against re-infestation after treatment (D28)” value (shortened to “prophylactic efficacy … (D28)”) was 100%.
Regarding `N#CC1(NC(=O)c2cc(NC(=O)[C@H]3[C@H](c4cc(Cl)cc(Cl)c4)C3(Cl)Cl)ccc2Cl)CC1` [Compound 1590], the inhibition at 0.001 µM in test [1] is 80%. Further, in test [2], the pEC50 was ≥ 9.00. Moreover, the EC50 in test [5] (after 24 hours) was 4.12 ppb; in test [5] (after 48 hours) it was 0.40 ppb; in test [6] (after 24 hours), 3.75 ppb; in test [6] (after 48 hours) it was 0.58 ppb. The inhibition in vivo at 5 mg/kg in test [3] (setting [7]) came to 100%; in test [3] (setting [8]) it was 80%; in test [3] (setting [9]) it was 80%. Also, in test [4], the “therapeutic efficacy against juvenile sea lice” value is listed as 100%. For the same compound, in test [4], the “therapeutic efficacy against (pre-)adult sea lice” value stood at 100%. In addition, in test [4], the “prophylactic efficacy … (D14)” value is listed as 100%. In test [4], the “prophylactic efficacy … (D28)” value is 79.2%.
As to `N#CC1(NC(=O)c2cc(NC(=O)[C@H]3[C@H](c4cc(Cl)cc(Cl)c4)C3(Cl)Cl)cc(F)c2F)CC1` [Compound 1594], the inhibition at 0.0001 µM in test [1] (test concentration 0.1 nM) was 80%. In addition, in test [2], the pEC50 was ≥ 9.00. The inhibition in vivo at 5 mg/kg in test [3] (setting [7]) worked out at 100%. Moreover, the inhibition in vivo at 5 mg/kg in test [3] (setting [8]) was 100%. Further, the inhibition in vivo at 5 mg/kg in test [3] (setting [9]) stood at 100%. Further, in test [4], the “therapeutic efficacy against juvenile sea lice” value is listed as 100%, the “therapeutic efficacy against (pre-)adult sea lice” value was found to be 100%, the “prophylactic efficacy … (D14)” value came to 100% and the “prophylactic efficacy … (D28)” value was 100%.
Regarding `O=C(NC1CC1)c1cc(NC(=O)[C@H]2[C@H](c3cc(Cl)cc(Cl)c3)C2(Cl)Cl)ccc1F` [Compound 1632], the inhibition at 10 pM in test [1] (test concentration 0.01 nM) turned out to be 80%. In addition, the pEC50 in test [2] is ≥ 9.00. Moreover, the inhibition in vivo at 5 mg/kg in test [3] (setting [7]) came out at 100%; in test [3] (setting [9]), 80%.
Consider `C#CC1(NC(=O)c2cc(NC(=O)[C@H]3[C@H](c4cc(Cl)cc(Cl)c4)C3(Cl)Cl)ccc2F)CC1` [Compound 1633, 5-((1R,3R)-2,2-dichloro-3-(3,5-dichlorophenyl)cyclopropane-1-carboxamido)-N-(1-ethynylcyclopropyl)-2-fluorobenzamide], for which the inhibition at 0.001 µM in test [1] turned out to be 80%. Further, the pEC50 in test [2] is ≥ 9.00. In addition, the values for the inhibition in vivo at 5 mg/kg in test [3] (setting [7]), in test [3] (setting [8]) and in test [3] (setting [9]) were 100%, 80% and 100%, respectively.
